Key:
Pseudomonas aeruginosa [1] = test: Pseudomonas aeruginosa agarose bead lung infection in Cftr KO and WT mice (Example 2); format: in vivo
Protocol: A limited number of both WT (C57BL/6J, n=5) and Cftr KO (congenic-homologous, DelF508-FABP gut corrected animals, n=5) were evaluated for safety, toxicity, and efficacy upon oral dosing of 5 mg/kg ajulemic acid BID. As controls, PA infected WT C57BL/6J and Cftr KO mice were given the 2% methylcellulose vehicle. Cftr KO and WT animals in this study were followed daily for clinical score and weights for 10 days. At Day 10, animals were euthanized and evaluated for bacteria load (colony forming units, cfus), total bronchoalveolar lavage (BAL) white blood cell counts (WBCs), and differential cell counts.
Mice were inoculated with Pseudomonas aeruginosa (PA) agaroses beads in the lungs and then treated twice daily with oral doses of ajulemic acid at 1 mg/kg and 5 mg/kg. Ajulemic acid was then administered by gavage at 1 mg/kg or 5 mg/kg dose BID in 2% methylcellulose for 10 days starting 24 hours after establishing chronic Pseudomonas aeruginosa (PA) infection. The study included 4 groups:
1) C57BL/6J+vehicle (WT DIL, n=5),
2) C57BL/6J+5 mg/kg ajulemic acid BID (WT AJ, n=5),
3) Cftr KO+vehicle (CF DIL, n=5), and
4) Cftr KO+5 mg/kg ajulemic acid BID (CF AJ, n=5),
and all animals were chronically infected with Pseudomonas aeruginosa using a standard agarose bead model.

Pseudomonas aeruginosa [2] = test: Pseudomonas aeruginosa agarose bead lung infection in WT C57BL/6J mice (Example 1); format: in vivo
Protocol: Ajulemic acid (AJA) was tested in mice inoculated with Pseudomonas aeruginosa to determine its effect on treatment of infection, including the ability to promote bacterial clearance. Mice (WT, C57BL/6J) were inoculated with Pseudomonas aeruginosa agarose beads in the lungs and then treated twice daily with oral doses of ajulemic acid at 1 mg/kg and 5 mg/kg. Ajulemic acid was then administered by gavage at 1 mg/kg or 5 mg/kg dose BID in 2% methylcellulose for 10 days starting 24 hours after establishing chronic Pseudomonas aeruginosa infection. WT animals in this study were followed daily for clinical score and weights for 10 days. At Day 10, animals were euthanized and evaluated for bacteria load (colony forming units, cfus), total bronchoalveolar lavage (BAL), white blood cell counts (WBCs), and differential cell counts.
The study was conducted with 40 wild type female C57BL/6J mice. Each group of mice was inoculated with 10^5 colony forming units (CFUs) of Pseudomonas aeruginosa (PAM 5715, a CF clinical isolate). One day post infection, mice were given either 2% methylcellulose, 2% methylcellulose+1 mg/kg ajulemic acid, or 2% methylcellulose+5 mg/kg ajulemic acid BID. Animals were followed for 10 days. At day 10, animals were euthanized for BAL CFUs, differentials, total white blood cell count with fluid, and pellet saved for future studies.
Treatment and control groups include the following Pseudomonas aeruginosa infected controls treated with 2% methylcellulose, Pseudomonas aeruginosa infected animals treated with 1 mg/kg BID AJA in 2% methylcellulose, Pseudomonas aeruginosa infected animals treated with 5 mg/kg BID AJA in 2% methylcellulose, and untreated baseline controls.

Structure (SMILES): CCCCCCC(C)(C)c1cc(O)c2c(c1)OC(C)(C)[C@@H]1CC=C(C(=O)O)C[C@@H]21 [ajulemic acid, (6aR,10aR)-1-hydroxy-6,6-dimethyl-3-(2-methyl-2-octanyl)-6a,7,10,10a-tetrahydro-6H-benzo[c]chromene-9-carboxylic acid]
- Survival Rate (Day 10) (Pseudomonas aeruginosa [1]; Cftr KO (CF) mice, 5 mg/kg BID oral, n=5, vehicle 3/5, 5 mg/kg): 5/5
- BAL WBC counts (Pseudomonas aeruginosa [1]; Cftr KO mice, 5 mg/kg BID): decreased BAL WBC counts
- number of alveolar macrophages (Pseudomonas aeruginosa [1]; Cftr KO mice, 5 mg/kg BID): increase the number of alveolar macrophages
- weight loss (Pseudomonas aeruginosa [1]; Cftr KO mice, 5 mg/kg BID, P<0.01): decreased weight loss
- numbers of neutrophils (Pseudomonas aeruginosa [1]; Cftr KO mice, 5 mg/kg BID, P<0.05): decreased numbers of neutrophils
- ability to resolve pulmonary infection as assessed by lung CFUs (Pseudomonas aeruginosa [1]; Cftr KO mice, 5 mg/kg BID, Pvariance=0.002): improved the ability of the animals to resolve pulmonary infection
- white blood cell response (Pseudomonas aeruginosa [2]; 1 mg/kg and 5 mg/kg BID oral, day 3, relative to controls infected or not infected): elevated
- weight profiles (body weight maintenance) (Pseudomonas aeruginosa [2]; 1 mg/kg or 5 mg/kg BID, 10 days): no real adverse effect
- bacterial load of Pseudomonas aeruginosa (bacterial CFUs in the lungs) (Pseudomonas aeruginosa [2]; 5 mg/kg BID oral, day 10): effective at decreasing the overall number of bacterial CFUs in the lungs
- treatment of infection compared with vehicle (Pseudomonas aeruginosa [2]; WT C57BL/6J mice): more efficient at treating infection than vehicle
- tolerability (Pseudomonas aeruginosa [2]; WT C57BL/6J mice, 1 or 5 mg/kg BID oral, 10 days): well tolerated
- white blood cells (Pseudomonas aeruginosa [2]; all groups, day 10, compared to controls): normalized
- levels of neutrophils (Pseudomonas aeruginosa [2]; all treatment groups relative to the non-treated control): elevated levels of neutrophils
- levels of lymphocytes or eosinophils (Pseudomonas aeruginosa [2]; any of the groups): no significant difference
- alveolar macrophages (Pseudomonas aeruginosa [2]; treatment groups, by day 10): increase in alveolar macrophages
- neutrophils (Pseudomonas aeruginosa [2]; treatment groups, by day 10): decreased neutrophils

From US20200405687A1, “METHODS FOR THE TREATMENT OF INFECTION” (Corbus Pharmaceuticals, Inc., priority 2016, published 2020)
